Data as given in patent US8399381B2, “Condensed heterocyclic sulfonyl urea compound, a herbicide containing the same, and a method for weed control using the same” (Sumitomo Chemical Company, Limited, priority 2002, dated 2013).

Key:
[1] = test system: sulfonylurea herbicide-resistant Lindernia dubia subsp. major Pennell; assay: Paddy pot weeding test, flooded, two-leaf stage (Test Example 1); assay type: in vivo; details: 1 g/are, three weeks after treatment, resistant biotype, Kawanishi Town, Yamagata Pref.
Description: (§1) A 5 cm×5 cm Jiffy Pot™ was charged with paddy soil, then water was introduced into each pot, seeds of sulfonylurea herbicide-sensitive Scirpus juncoides var. ohwianus, sulfonylurea herbicide-sensitive Lindernia procumbens (Krock.) Philcox, sulfonylurea herbicide-sensitive Lindernia dubia subsp. major Pennell, sulfonylurea herbicide-resistant Scirpus juncoides var. ohwianus, sulfonylurea herbicide-resistant Lindernia procumbens (Krock.) Philcox and sulfonylurea herbicide-resistant Lindernia dubia subsp. major Pennell were sowed therein and cultivated for a prescribed period under flooding conditions. When the plants reached the two-leave stage, the prescribed number of Jiffy Pots where the plants had been grown were transferred to a 150-cm^2 rectangular plastic pot, and water was introduced to a height of 3 cm, and a chemical diluent containing a compound was applied into the pot in an amount of 1 g/are. The chemical diluent was prepared by dissolving 1.5 g compound in 2 L of N,N-dimethylformamide (DMF) containing, 2% (W/V) surfactant Tween™ 20 and then diluting it with water to adjust the total volume to 10 L.

[2] = test system: sulfonylurea herbicide-resistant Scirpus juncoides var. ohwianus; assay: as above; assay type: in vivo; details: 1 g/are, three weeks after treatment, resistant biotype, Iwamisawa City, Hokkaido
Description: as §1

[3] = test system: sulfonylurea herbicide-sensitive Lindernia dubia subsp. major Pennell; assay: as above; assay type: in vivo; details: 1 g/are, three weeks after treatment, sensitive biotype, Makabe Town, Ibaraki Pref.
Description: as §1

[4] = test system: sulfonylurea herbicide-sensitive Lindernia procumbens (Krock.) Philcox; assay: as above; assay type: in vivo; details: 1 g/are, three weeks after treatment, sensitive biotype, Kyoto Pref.
Description: as §1

[5] = test system: sulfonylurea herbicide-sensitive Scirpus juncoides var. ohwianus; assay: as above; assay type: in vivo; details: 1 g/are, three weeks after treatment, sensitive biotype, Kyoto Pref.
Description: as §1

[6] = test system: sulfonylurea herbicide-resistant Lindernia procumbens (Krock.) Philcox; assay: Paddy pot weeding test, flooded, two-leaf stage (Test Example 1); assay type: in vivo; details: 1 g/are, three weeks after treatment, resistant biotype, Tajiri Town, Miyagi Pref.
Description: as §1

melting point | Compound | R Lindernia dubia subsp. major Pennell (effect index) [1] | R Scirpus juncoides var. ohwianus (effect index) [2] | S Lindernia dubia subsp. major Pennell (effect index) [3] | S Lindernia procumbens (Krock.) Philcox (effect index) [4] | S Scirpus juncoides var. ohwianus (effect index) [5] | R Lindernia procumbens (Krock.) Philcox (effect index) [6]
182 to 184 °C | CCc1nc2ccc(C)nn2c1NC(=O)NS(=O)(=O)c1nc(OC)cc(OC)n1 [Compound No. 1] |  |  |  |  |  | 
246 to 248 °C (dec.) | COc1cc(OC)nc(S(=O)(=O)NC(=O)Nc2c(C)nc3ccc(S(C)(=O)=O)nn23)n1 [Compound No. 21] |  |  |  |  |  | 
174 to 175 °C | CCc1nc2ccc(Cl)nn2c1NC(=O)NS(=O)(=O)c1nc(OC)cc(OC)n1 [Compound No. 2] |  |  |  |  |  | 
191 to 193 °C (dec.) | COc1cc(OC)nc(S(=O)(=O)NC(=O)Nc2c(C)nc3c(C)cc(SC)nn23)n1 [Compound No. 20] |  |  |  |  |  | 
118 to 123 °C (dec.) | CCc1nc2ccc(OC)nn2c1NC(=O)NS(=O)(=O)c1nc(OC)cc(OC)n1 [Compound No. 6] |  |  |  |  |  | 
168 to 169 °C | CCOc1ccc2nc(Cl)c(NC(=O)NS(=O)(=O)c3nc(OC)cc(OC)n3)n2n1 [Compound No. 23] | 4 (high 61 to 80) | 5 (excellent 81 to 100) | 5 (excellent 81 to 100) | 5 (excellent 81 to 100) | 5 (excellent 81 to 100) | 
241 °C | COc1cc(OC)nc(S(=O)(=O)NC(=O)Nc2c(C)nc3ccc(OC)nn23)n1 [Compound No. 17] |  |  |  |  |  | 
180 to 182 °C | CCSc1ccc2nc(Cl)c(NC(=O)NS(=O)(=O)c3nc(OC)cc(OC)n3)n2n1 [Compound No. 25] | 4 (high 61 to 80) | 5 (excellent 81 to 100) | 5 (excellent 81 to 100) | 5 (excellent 81 to 100) | 5 (excellent 81 to 100) | 
193 to 195 °C | COc1cc(OC)nc(S(=O)(=O)NC(=O)Nc2c(Cl)nc3ccc(N(C)C)nn23)n1 [Compound No. 22] |  |  |  |  |  | 
266 to 268 °C (dec.) | COc1cc(OC)nc(S(=O)(=O)NC(=O)Nc2c(C)nc3c(C)cc(N(C)C)nn23)n1 [Compound No. 15] |  |  |  |  |  | 

More lines, now with the values behind:

Compound | melting point | R Lindernia dubia subsp. major Pennell (effect index) [1] | R Scirpus juncoides var. ohwianus (effect index) [2] | S Lindernia dubia subsp. major Pennell (effect index) [3] | S Lindernia procumbens (Krock.) Philcox (effect index) [4] | S Scirpus juncoides var. ohwianus (effect index) [5] | R Lindernia procumbens (Krock.) Philcox (effect index) [6]
C/C=C/c1ccc2nc(Cl)c(S(=O)(=O)NC(=O)Nc3nc(OC)cc(OC)n3)n2n1 [Compound No. 45] |  | 5 (excellent 81 to 100) | 4 (high 61 to 80) | 5 (excellent 81 to 100) | 5 (excellent 81 to 100) | 5 (excellent 81 to 100) | 
CCCc1ccc2nc(Cl)c(S(=O)(=O)NC(=O)Nc3nc(OC)cc(OC)n3)n2n1 [Compound No. 38, 1-(2-chloro-6-n-propylimidazo[1,2-b]pyridazin-3-ylsulfonyl)-3-(4,6-dimethoxypyrimidin-2-yl)urea] |  | 5 (excellent 81 to 100) | 5 (excellent 81 to 100) | 5 (excellent 81 to 100) | 5 (excellent 81 to 100) | 5 (excellent 81 to 100) | 5 (excellent 81 to 100)
COc1cc(OC)nc(NC(=O)NS(=O)(=O)c2c(Cl)nc3ccc(C(C)C)nn23)n1 [Compound No. 40] |  | 5 (excellent 81 to 100) | 5 (excellent 81 to 100) | 5 (excellent 81 to 100) | 5 (excellent 81 to 100) | 5 (excellent 81 to 100) | 5 (excellent 81 to 100)
CCCCc1ccc2nc(Cl)c(S(=O)(=O)NC(=O)Nc3nc(OC)cc(OC)n3)n2n1 [Compound No. 41] |  | 5 (excellent 81 to 100) | 5 (excellent 81 to 100) | 5 (excellent 81 to 100) | 5 (excellent 81 to 100) | 5 (excellent 81 to 100) | 4 (high 61 to 80)
CCCc1ccc2nc(F)c(S(=O)(=O)NC(=O)Nc3nc(OC)cc(OC)n3)n2n1 [Compound No. 46] |  | 5 (excellent 81 to 100) | 5 (excellent 81 to 100) | 5 (excellent 81 to 100) | 5 (excellent 81 to 100) | 5 (excellent 81 to 100) | 
COc1cc(OC)nc(NC(=O)NS(=O)(=O)c2c(Cl)nc3cccnn23)n1 [comparison 2, reference compound] |  | 0 (none 0) | 0 (none 0) | 5 (excellent 81 to 100) | 5 (excellent 81 to 100) | 5 (excellent 81 to 100) | 0 (none 0)
CCCc1nc2ccc(SC)nn2c1S(=O)(=O)NC(=O)Nc1nc(OC)cc(OC)n1 [Compound No. 31] |  | 4 (high 61 to 80) | 5 (excellent 81 to 100) | 5 (excellent 81 to 100) | 5 (excellent 81 to 100) | 5 (excellent 81 to 100) | 
CCOc1ccn2nc(C)c(NC(=O)NS(=O)(=O)c3nc(OC)cc(OC)n3)c2n1 [compound 34] |  | 5 (excellent 81 to 100) | 4 (high 61 to 80) |  | 5 (excellent 81 to 100) | 4 (high 61 to 80) | 
COc1cc(OC)nc(NC(=O)NS(=O)(=O)c2c(Cl)nc3ccc(C4CC4)nn23)n1 [Compound No. 44] |  | 5 (excellent 81 to 100) | 4 (high 61 to 80) | 5 (excellent 81 to 100) | 5 (excellent 81 to 100) | 5 (excellent 81 to 100) | 
COc1cc(OC)nc(NC(=O)NS(=O)(=O)c2c(C)nc3ccc(C(C)C)nn23)n1 [Compound No. 39] |  | 5 (excellent 81 to 100) | 5 (excellent 81 to 100) | 5 (excellent 81 to 100) | 5 (excellent 81 to 100) | 5 (excellent 81 to 100) | 5 (excellent 81 to 100)
CCOc1ccc2nc(C(F)(F)F)c(NC(=O)NS(=O)(=O)c3nc(OC)cc(OC)n3)n2n1 [Compound No. 10] | 169 to 171 °C |  |  |  |  |  | 
CCOc1ccc2nc(CC)c(NC(=O)NS(=O)(=O)c3nc(OC)cc(OC)n3)n2n1 [Compound No. 5] | 180 to 181 °C |  |  |  |  |  | 
C=Cc1ccc2nc(Cl)c(S(=O)(=O)NC(=O)Nc3nc(OC)cc(OC)n3)n2n1 [Compound No. 43] |  | 5 (excellent 81 to 100) | 4 (high 61 to 80) | 5 (excellent 81 to 100) | 5 (excellent 81 to 100) | 5 (excellent 81 to 100) | 
CCCc1ccc2nc(C)c(S(=O)(=O)NC(=O)Nc3nc(OC)cc(OC)n3)n2n1 [Compound No. 36] |  | 5 (excellent 81 to 100) | 5 (excellent 81 to 100) | 5 (excellent 81 to 100) | 5 (excellent 81 to 100) | 5 (excellent 81 to 100) | 5 (excellent 81 to 100)
CCSc1ccc2nc(C(F)(F)F)c(NC(=O)NS(=O)(=O)c3nc(OC)cc(OC)n3)n2n1 [Compound No. 11] | 179 to 180 °C | 5 (excellent 81 to 100) | 5 (excellent 81 to 100) | 5 (excellent 81 to 100) | 5 (excellent 81 to 100) | 5 (excellent 81 to 100) | 
COc1cc(C)nc(S(=O)(=O)NC(=O)Nc2c(Cl)nc3ccc(SC)nn23)n1 [Compound No. 27] | 172 to 174 °C |  |  |  |  |  | 
